These results are taken from ChEMBL document CHEMBL1145498, “A systematic interaction map of validated kinase inhibitors with Ser/Thr kinases” (Proc Natl Acad Sci U S A, 2007).

Assay [1] concerns the target Serine/threonine-protein kinase Nek6 (Homo sapiens) (UniProt Q9HC98).
Assay [2] deals with Calcium/calmodulin-dependent protein kinase kinase 2 (Homo sapiens, UniProt Q96RR4).
Assay [3] addresses Serine/threonine-protein kinase 25 (Homo sapiens) (UniProt O00506).
For assay [4], the target named is Dual specificity protein kinase CLK3 (Homo sapiens) (UniProt P49761).
Chain of Dual specificity protein kinase CLK3 (Homo sapiens) (P49761 whole entry, looked up): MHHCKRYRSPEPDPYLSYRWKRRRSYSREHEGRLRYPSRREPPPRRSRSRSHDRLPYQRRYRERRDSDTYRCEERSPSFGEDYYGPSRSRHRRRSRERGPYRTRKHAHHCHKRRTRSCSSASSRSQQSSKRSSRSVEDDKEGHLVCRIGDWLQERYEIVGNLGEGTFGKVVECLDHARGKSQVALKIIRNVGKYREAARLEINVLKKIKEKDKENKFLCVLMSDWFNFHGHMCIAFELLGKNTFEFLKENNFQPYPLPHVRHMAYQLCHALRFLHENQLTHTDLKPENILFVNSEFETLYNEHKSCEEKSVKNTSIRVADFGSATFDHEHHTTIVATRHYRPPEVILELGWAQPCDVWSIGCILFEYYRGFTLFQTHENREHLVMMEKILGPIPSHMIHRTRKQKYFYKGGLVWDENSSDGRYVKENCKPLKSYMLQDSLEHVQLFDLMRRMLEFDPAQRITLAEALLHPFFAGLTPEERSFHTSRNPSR
Assay [5] addresses Dual specificity protein kinase CLK2 (Homo sapiens) (UniProt P49760).
The target of assay [6] is Serine/threonine-protein kinase 16 (Homo sapiens) (UniProt O75716).
The target of assay [7] is Calcium/calmodulin-dependent protein kinase type II subunit delta (Homo sapiens) (UniProt Q13557).
Chain of Calcium/calmodulin-dependent protein kinase type II subunit delta (Homo sapiens) (Q13557 whole entry): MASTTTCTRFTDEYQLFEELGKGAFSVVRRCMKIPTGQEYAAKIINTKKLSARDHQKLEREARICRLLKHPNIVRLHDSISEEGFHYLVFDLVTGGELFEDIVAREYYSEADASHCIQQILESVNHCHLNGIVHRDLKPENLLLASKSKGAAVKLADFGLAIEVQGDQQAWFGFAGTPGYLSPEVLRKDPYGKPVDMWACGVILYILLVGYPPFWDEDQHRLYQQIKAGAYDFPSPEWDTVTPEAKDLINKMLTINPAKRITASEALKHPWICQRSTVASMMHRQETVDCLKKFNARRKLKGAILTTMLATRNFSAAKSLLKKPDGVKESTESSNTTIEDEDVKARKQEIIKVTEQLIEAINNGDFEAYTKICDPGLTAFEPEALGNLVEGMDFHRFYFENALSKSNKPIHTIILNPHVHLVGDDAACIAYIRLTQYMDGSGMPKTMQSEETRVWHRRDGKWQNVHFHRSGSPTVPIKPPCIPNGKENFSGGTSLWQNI
Assay [8] deals with T1, 3-phosphoinositide-dependent protein kinase 1 (Homo sapiens) (UniProt O15530).
T1 sequence (whole entry): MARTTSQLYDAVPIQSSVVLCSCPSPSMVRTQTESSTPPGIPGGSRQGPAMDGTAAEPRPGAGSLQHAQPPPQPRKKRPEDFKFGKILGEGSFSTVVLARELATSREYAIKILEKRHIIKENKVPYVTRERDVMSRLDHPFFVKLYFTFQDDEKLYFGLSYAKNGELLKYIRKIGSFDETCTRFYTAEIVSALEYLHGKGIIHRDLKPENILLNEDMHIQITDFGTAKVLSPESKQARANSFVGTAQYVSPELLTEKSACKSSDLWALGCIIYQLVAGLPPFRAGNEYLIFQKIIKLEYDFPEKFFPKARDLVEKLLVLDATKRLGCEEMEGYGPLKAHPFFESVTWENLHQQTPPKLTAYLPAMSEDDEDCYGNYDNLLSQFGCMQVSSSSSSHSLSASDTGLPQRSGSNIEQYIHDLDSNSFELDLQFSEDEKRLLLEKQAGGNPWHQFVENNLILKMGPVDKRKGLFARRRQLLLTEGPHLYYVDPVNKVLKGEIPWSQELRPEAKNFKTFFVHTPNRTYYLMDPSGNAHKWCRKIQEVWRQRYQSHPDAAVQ

For assay [9], the target named is Casein kinase I isoform gamma-1 (Homo sapiens) (UniProt Q9HCP0).
For assay [10], the target named is T2, Serine/threonine-protein kinase 17A (Homo sapiens) (UniProt Q9UEE5).
T2 sequence (whole entry): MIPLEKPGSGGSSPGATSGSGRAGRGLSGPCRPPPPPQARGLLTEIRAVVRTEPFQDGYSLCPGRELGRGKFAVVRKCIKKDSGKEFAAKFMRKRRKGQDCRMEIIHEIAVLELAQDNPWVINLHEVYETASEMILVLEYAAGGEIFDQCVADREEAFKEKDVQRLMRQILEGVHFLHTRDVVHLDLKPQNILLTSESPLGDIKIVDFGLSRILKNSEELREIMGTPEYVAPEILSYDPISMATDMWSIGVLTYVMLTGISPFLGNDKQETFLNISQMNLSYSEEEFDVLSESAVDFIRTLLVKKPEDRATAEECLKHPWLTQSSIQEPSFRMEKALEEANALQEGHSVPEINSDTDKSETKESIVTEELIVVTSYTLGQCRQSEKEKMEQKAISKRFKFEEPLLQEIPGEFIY

Assay [11] concerns the target Serine/threonine-protein kinase OSR1 (Homo sapiens) (UniProt O95747).
The target of assay [12] is Casein kinase I isoform gamma-3 (Homo sapiens) (UniProt Q9Y6M4).
Chain of Casein kinase I isoform gamma-3 (Homo sapiens) (Q9Y6M4 whole entry, looked up, canonical isoform): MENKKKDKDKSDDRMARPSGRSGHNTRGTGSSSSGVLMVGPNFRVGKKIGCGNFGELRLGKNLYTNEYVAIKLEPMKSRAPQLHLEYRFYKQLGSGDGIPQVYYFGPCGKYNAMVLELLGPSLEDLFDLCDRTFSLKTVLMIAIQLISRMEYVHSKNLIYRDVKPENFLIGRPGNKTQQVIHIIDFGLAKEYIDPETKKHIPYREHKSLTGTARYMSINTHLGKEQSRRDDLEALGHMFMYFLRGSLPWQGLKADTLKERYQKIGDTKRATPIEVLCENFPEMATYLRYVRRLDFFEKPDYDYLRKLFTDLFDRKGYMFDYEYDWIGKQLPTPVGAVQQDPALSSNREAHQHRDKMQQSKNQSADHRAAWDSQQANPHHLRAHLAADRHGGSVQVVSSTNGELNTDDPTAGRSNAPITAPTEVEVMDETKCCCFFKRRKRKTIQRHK
The target of assay [13] is Cyclin-dependent kinase-like 1 (Homo sapiens) (UniProt Q00532).
The target of assay [14] is Serine/threonine-protein kinase VRK2 (Homo sapiens) (UniProt Q86Y07).
Chain of Serine/threonine-protein kinase VRK2 (Homo sapiens) (Q86Y07 whole entry): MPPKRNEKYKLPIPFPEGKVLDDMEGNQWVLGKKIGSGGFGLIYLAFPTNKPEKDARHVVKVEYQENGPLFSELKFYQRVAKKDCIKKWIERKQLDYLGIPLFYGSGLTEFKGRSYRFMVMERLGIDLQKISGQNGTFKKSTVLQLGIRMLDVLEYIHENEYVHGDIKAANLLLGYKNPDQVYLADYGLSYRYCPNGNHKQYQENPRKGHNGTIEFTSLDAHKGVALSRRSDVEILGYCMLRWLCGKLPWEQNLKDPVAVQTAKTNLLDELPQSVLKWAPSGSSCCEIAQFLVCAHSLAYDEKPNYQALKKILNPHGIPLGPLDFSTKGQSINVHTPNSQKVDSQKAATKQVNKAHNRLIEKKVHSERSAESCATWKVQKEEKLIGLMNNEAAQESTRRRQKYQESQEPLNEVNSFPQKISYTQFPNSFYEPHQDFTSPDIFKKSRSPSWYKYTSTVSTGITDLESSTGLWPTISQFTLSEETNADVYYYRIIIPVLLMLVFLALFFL
In assay [15] the target is T3, Serine/threonine-protein kinase PLK4 (Homo sapiens) (UniProt O00444).
T3 sequence (whole entry): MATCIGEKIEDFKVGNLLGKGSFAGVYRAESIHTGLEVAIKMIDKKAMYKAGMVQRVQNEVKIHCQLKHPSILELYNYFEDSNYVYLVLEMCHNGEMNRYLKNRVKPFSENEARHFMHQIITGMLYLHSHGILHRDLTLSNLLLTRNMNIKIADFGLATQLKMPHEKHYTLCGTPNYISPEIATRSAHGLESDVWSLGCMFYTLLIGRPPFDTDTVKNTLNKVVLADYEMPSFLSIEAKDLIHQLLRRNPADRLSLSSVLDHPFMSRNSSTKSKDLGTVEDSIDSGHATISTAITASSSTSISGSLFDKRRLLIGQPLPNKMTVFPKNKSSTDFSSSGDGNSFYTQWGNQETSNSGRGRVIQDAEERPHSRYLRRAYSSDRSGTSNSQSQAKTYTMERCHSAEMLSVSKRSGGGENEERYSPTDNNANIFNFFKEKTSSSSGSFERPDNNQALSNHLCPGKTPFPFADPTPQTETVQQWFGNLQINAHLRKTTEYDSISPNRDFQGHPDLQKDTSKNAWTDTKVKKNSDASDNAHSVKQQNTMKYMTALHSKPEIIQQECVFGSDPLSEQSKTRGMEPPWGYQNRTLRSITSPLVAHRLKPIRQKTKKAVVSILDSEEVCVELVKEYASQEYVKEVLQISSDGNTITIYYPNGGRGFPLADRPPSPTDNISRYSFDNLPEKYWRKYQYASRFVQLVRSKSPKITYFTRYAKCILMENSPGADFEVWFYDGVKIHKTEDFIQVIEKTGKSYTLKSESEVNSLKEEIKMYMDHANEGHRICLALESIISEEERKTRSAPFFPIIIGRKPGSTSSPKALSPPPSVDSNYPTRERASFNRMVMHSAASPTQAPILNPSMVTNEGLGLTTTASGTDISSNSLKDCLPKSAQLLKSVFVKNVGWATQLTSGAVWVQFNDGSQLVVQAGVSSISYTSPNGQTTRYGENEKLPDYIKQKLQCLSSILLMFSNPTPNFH

The target in assay [16] is Dual specificity protein kinase CLK1 (Homo sapiens) (UniProt P49759).
Chain of Dual specificity protein kinase CLK1 (Homo sapiens) (P49759 whole entry, looked up): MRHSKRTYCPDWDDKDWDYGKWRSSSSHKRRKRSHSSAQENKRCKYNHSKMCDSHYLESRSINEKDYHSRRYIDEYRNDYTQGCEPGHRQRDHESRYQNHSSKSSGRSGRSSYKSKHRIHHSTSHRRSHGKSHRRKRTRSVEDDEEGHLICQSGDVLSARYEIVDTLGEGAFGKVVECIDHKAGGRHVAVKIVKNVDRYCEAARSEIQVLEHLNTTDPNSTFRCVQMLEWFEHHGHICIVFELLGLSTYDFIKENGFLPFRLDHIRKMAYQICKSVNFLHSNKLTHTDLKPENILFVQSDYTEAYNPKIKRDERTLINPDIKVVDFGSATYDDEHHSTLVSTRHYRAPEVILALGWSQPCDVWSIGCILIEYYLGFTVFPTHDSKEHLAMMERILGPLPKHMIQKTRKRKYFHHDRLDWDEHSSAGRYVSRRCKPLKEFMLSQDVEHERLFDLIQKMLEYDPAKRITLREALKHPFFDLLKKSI
The target in assay [17] is Calcium/calmodulin-dependent protein kinase type II subunit alpha (Homo sapiens) (UniProt Q9UQM7).
Chain of Calcium/calmodulin-dependent protein kinase type II subunit alpha (Homo sapiens) (Q9UQM7 whole entry): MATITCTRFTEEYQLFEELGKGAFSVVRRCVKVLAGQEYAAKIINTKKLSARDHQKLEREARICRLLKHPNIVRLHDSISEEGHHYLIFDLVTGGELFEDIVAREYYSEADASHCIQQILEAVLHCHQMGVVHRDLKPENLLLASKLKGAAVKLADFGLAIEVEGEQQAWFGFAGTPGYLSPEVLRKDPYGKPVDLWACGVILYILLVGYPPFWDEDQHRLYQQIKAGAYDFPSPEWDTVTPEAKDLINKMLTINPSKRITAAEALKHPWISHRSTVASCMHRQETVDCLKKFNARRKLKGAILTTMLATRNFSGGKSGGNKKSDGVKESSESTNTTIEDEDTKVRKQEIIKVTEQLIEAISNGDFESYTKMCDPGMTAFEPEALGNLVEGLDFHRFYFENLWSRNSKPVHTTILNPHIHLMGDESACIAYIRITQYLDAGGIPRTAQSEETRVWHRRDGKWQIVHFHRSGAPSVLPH

Chain of Serine/threonine-protein kinase Nek6 (Homo sapiens) (Q9HC98 whole entry): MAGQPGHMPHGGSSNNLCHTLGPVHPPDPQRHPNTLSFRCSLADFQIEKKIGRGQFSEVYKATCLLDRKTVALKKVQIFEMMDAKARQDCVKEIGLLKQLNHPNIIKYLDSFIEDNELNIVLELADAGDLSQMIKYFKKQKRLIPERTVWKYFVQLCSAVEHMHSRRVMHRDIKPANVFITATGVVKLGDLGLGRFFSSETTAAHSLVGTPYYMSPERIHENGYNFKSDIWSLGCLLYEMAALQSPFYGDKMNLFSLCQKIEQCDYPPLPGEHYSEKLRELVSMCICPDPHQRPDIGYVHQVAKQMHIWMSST
Chain of Serine/threonine-protein kinase OSR1 (Homo sapiens) (O95747 2-527 limits assumed): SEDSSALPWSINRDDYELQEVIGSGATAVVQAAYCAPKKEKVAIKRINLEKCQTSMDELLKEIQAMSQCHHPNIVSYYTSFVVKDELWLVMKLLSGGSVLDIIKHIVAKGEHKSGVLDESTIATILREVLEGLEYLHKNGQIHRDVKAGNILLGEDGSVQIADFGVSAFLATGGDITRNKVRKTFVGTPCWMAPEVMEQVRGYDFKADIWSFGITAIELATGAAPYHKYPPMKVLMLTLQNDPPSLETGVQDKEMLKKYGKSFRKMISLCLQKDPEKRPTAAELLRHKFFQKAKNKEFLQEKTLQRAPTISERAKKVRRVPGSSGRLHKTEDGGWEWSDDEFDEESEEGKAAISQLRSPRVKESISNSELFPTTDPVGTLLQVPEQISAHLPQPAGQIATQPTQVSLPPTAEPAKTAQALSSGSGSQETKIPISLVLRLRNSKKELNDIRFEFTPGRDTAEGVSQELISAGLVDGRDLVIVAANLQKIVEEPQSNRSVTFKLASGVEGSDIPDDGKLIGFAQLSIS
Chain of Dual specificity protein kinase CLK2 (Homo sapiens) (P49760 whole entry, looked up): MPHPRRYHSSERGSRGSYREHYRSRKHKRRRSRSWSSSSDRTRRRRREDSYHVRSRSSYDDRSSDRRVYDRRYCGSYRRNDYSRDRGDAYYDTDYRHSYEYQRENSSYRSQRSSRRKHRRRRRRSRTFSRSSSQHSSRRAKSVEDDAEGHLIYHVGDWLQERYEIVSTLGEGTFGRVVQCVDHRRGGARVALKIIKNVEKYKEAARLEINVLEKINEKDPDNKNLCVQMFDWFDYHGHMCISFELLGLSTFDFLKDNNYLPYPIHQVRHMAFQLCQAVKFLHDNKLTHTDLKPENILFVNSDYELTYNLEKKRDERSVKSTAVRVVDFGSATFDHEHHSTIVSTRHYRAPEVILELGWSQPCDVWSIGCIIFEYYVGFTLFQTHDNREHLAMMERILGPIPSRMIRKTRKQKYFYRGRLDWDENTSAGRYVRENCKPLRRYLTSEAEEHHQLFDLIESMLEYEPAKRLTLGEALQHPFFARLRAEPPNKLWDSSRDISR
Chain of Serine/threonine-protein kinase 25 (Homo sapiens) (O00506 whole entry, looked up): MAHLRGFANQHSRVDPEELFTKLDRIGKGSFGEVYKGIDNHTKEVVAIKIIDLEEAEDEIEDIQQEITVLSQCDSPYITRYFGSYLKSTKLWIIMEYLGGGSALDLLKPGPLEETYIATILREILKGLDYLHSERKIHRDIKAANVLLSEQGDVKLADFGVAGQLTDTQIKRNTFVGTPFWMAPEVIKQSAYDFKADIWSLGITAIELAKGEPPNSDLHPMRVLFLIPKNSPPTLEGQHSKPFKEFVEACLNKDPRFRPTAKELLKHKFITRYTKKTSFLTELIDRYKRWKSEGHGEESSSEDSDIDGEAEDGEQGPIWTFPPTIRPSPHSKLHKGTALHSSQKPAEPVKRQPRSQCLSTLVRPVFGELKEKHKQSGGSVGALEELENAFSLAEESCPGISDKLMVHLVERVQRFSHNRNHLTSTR

`O=C1Nc2ccc(S(=O)(=O)O)cc2/C1=C1/Nc2ccccc2/C1=N\O`: the ΔTm in assay [1] is 0.8 °C; in [2], 4.9 °C; in [3], 2.2 °C; in assay [4] it was 3.5 °C; in assay [5], 3.7 °C; in assay [6] it was 4.9 °C. Moreover, the ΔTm in [7] was determined as 1.2 °C; in [8], 0.7 °C; in [9] it was 4 °C; in assay [10] it was 9.8 °C; in assay [11], 0.1 °C; in assay [12] it was 3.7 °C. The shift in melting temperature (ΔTm) in assay [13] worked out at 3.1 °C; in assay [14], 4 °C; in assay [15], 10.4 °C; in [16], 3.9 °C; in [17] it was 4.8 °C.
Regarding `O=C1c2ccccc2-[n+]2ccc3c([nH]c4ccccc43)c21` [FASCAPLYSIN CHLORIDE], the ΔTm in assay [1] was -0.1 °C; in assay [2], -2.1 °C; in assay [3], -1.5 °C; in assay [4] it was -0.9 °C; in assay [5] it was -0.4 °C; in assay [6], -0.1 °C. The ΔTm was -2.9 °C in [7]; -2.7 °C in assay [8]; -0.6 °C in [9]; 1.5 °C in assay [10]; -1.5 °C in assay [11]; -0.8 °C in assay [12]. Also, the ΔTm in assay [13] was -0.5 °C; in [14], -0.8 °C; in assay [15] it was -0.1 °C; in [16], -1.9 °C; in assay [17], -0.5 °C.
As to `O=C1Cc2c([nH]c3ccc(Br)cc23)-c2ccccc2N1` [KENPAULLONE], the ΔTm in assay [1] came to 0.4 °C; in assay [2] it was 2 °C; in assay [3] it was 2.7 °C; in assay [4], 0.8 °C; in [5], 0.1 °C; in assay [6], 0.7 °C. Further, the ΔTm in assay [7] was 0.2 °C; in [8] it was -0.8 °C; in assay [9], 0.3 °C; in assay [10] it was 5.9 °C; in assay [11], 1.8 °C; in assay [12] it was 0.4 °C. The ΔTm in assay [13] was -0.1 °C; in assay [14], 0.2 °C; in [15] it was 7.1 °C; in [16] it was 1.7 °C; in [17] it was 0 °C.
As for `COc1cccc(-c2cc(=O)c3ccccc3o2)c1N`, the ΔTm in [1] is -0.1 °C; in assay [2] it was -0.4 °C; in assay [3], 0.5 °C; in [4], 0 °C; in [5], 0 °C; in assay [6], 0.6 °C. The ΔTm in assay [7] is 0.3 °C; in [8], -0.2 °C; in [9], 0.1 °C; in [10], 0.7 °C; in assay [11], 0.2 °C; in assay [12], 0.1 °C. Moreover, the ΔTm in assay [13] was 0 °C; in assay [14], 0.2 °C; in assay [15], 0.2 °C; in [16], 0.2 °C; in assay [17] it was -0.5 °C.
`Cl.Cn1cc(C2=C(c3ccc4cc5n(c4c3)CCC(CN)C5)C(=O)NC2=O)c2ccccc21` (stereo unspecified): the ΔTm was -0.7 °C in [1]; -1.3 °C in assay [2]; 0.7 °C in assay [3]; 0 °C in [4]; 1 °C in assay [5]; 1.2 °C in assay [6]. Also, the ΔTm is -0.5 °C in assay [7]; 0 °C in [8]; 0.5 °C in assay [9]; 3.5 °C in assay [10]; -0.1 °C in assay [11]; 0.6 °C in assay [12]. Besides, the ΔTm was determined as 0.2 °C in [13]; 0.4 °C in assay [14]; 0.1 °C in assay [15]; 1 °C in [16]; 1.4 °C in assay [17].
With `C[S+]([O-])c1ccc(CSc2nc(-c3ccc(F)cc3)c(-c3ccncc3)[nH]2)cc1` (stereo unspecified), the shift in melting temperature (ΔTm) in assay [1] is -0.2 °C; in [2], 0.9 °C; in assay [3], 0.6 °C; in assay [4] it was -0.1 °C; in assay [5] it was 0.2 °C; in assay [6], 0.5 °C. For the same molecule, the ΔTm in assay [7] was 0 °C; in [8], -0.3 °C; in [9], 0.2 °C; in assay [10], 0 °C; in assay [11] it was 0.1 °C; in assay [12], -0.1 °C. The ΔTm in assay [13] was 0.2 °C; in [14] it was 0.1 °C; in assay [15], 0.3 °C; in assay [16], -0.5 °C; in [17] it was -0.1 °C.
Turning to `CC(=O)O/N=C1/C(=C2/C(=O)Nc3cc(Br)ccc32)Nc2ccccc21` [6-BROMOINDIRUBIN-3'-ACETOXIME], the thermal shift (ΔTm) is 0.7 °C in assay [1]; -1.7 °C in [2]; 1.1 °C in [3]; -0.4 °C in assay [4]; 2.3 °C in assay [5]; 1.7 °C in assay [6]. Moreover, the ΔTm was -0.3 °C in [7]; 0.8 °C in assay [8]; 0.6 °C in [9]; 3 °C in [10]; -1.1 °C in assay [11]; 0.5 °C in assay [12]. In addition, the ΔTm was 3.2 °C in assay [13]; 0.6 °C in assay [14]; 6.7 °C in assay [15]; -0.3 °C in assay [16]; 0.9 °C in [17].
`COc1ccc(CNc2nc(N(CCO)CCO)nc3c2ncn3C(C)C)cc1`: the ΔTm in [1] came to 0.3 °C; in [2] it was 1.2 °C; in [3], 1.5 °C; in assay [4] it was 0.6 °C; in [5] it was 2.4 °C; in [6] it was 2.3 °C. The ΔTm in assay [7] is -0.3 °C; in assay [8], 0 °C; in [9], 1.8 °C; in assay [10], -0.2 °C; in assay [11], 0.4 °C; in [12], 1.7 °C. Also, the ΔTm in [13] came out at 0.3 °C; in [14], 1.4 °C; in assay [15] it was 0.5 °C; in assay [16], 2.4 °C; in assay [17] it was 0 °C.

The ΔTm is the shift of the melting midpoint relative to a reference.
